This note sets out measurements from ChEMBL document CHEMBL1201862, “PubChem BioAssay data set” (2004).

Each structure is given as a SMILES string.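 Tested at 5 concentrations; 48 h exposure; 96-well plates; endpoints linearly interpolated, else capped at highest concentration. GI50 is the concentration that inhibits growth by half.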 The source made the active and inactive calls. Rule as the data show it: active = GI50 up to about 1.1 µM and inactive = higher.

What all share (assay): DTP human tumour cell line panel, 48 h
In experiment [1] the test system is 786-0.
For experiment [2], the system named is A549.
The test system of experiment [3] is COLO 205.
The subject of experiment [4] is EKVX.
The test system of experiment [5] is HT-29.
Experiment [6] concerns K562.
The test system of experiment [7] is KM12.
The subject of experiment [8] is MDA-MB-231.
The subject of experiment [9] is MDA-MB-435.
For experiment [10], the system named is MDA-N.
The test system of experiment [11] is NCI-H522.
The subject of experiment [12] is NCI/ADR-RES.
Experiment [13] concerns OVCAR-8.
Experiment [14] deals with SF-268.
In experiment [15] the test system is SF-295.
Experiment [16] has as its system SF-539.
Experiment [17] concerns SK-MEL-2.
Experiment [18] has as its system T47D.
Experiment [19] has as its system HL-60.
For experiment [20], the system named is SR.

Usually GI50 stands for the concentration that inhibits growth by half. For `C/C(=N\c1cc(Cl)cc(Cl)c1)c1ccncc1`, the GI50 in experiment [1], in experiment [2], in experiment [3], in [4], in [5] and in experiment [6] was > 100 µM (inactive) in each case. In addition, the GI50 in experiment [7], in [8], in experiment [9], in experiment [10], in experiment [11] and in [12] was > 100 µM (inactive) in each case. In addition, the GI50 in experiment [13], in [14], in experiment [15], in experiment [16], in experiment [17] and in experiment [18] was > 100 µM (inactive) throughout.

`CC1OC(OC2C(O[C@@H]3C[C@@H]4CC[C@@H]5[C@H](CC[C@]6(C)[C@@H]7[C@H](C[C@@H]56)O[C@]5(CC[C@@H](C)CO5)[C@H]7C)[C@@]4(C)C[C@H]3O)OC(CO)C(OC3OC(CO)C(O)C(O)C3O)C2O)C(O)C(O)C1O` (stereo not given in full): the GI50 is 1.73 µM (inactive) in experiment [1]; 1.57 µM (inactive) in experiment [2]; 1.74 µM (inactive) in experiment [3]; 1.51 µM (inactive) in experiment [4]; 1.91 µM (inactive) in [19]; 1.53 µM (inactive) in experiment [5]. Further, the GI50 was 5.92 µM (inactive) in experiment [6]; 1.98 µM (inactive) in [7]; 1.8 µM (inactive) in experiment [8]; 1.78 µM (inactive) in [9]; 1.91 µM (inactive) in [10]; 1.1 µM (active) in [11]. The GI50 is 1.67 µM (inactive) in experiment [12]; 1.52 µM (inactive) in [13]; 1.84 µM (inactive) in experiment [14]; 1.56 µM (inactive) in experiment [15]; 1.77 µM (inactive) in experiment [16]; 1.74 µM (inactive) in experiment [17]. Also, in experiment [18], the GI50 is 3.66 µM (inactive).

Regarding `C=C(COC(=O)C(C)C)[C@H]1Oc2ccc(C(C)=O)cc2[C@@H]1OC(=O)C(C)C`, the GI50 in experiment [1] was > 100 µM (inactive); in [2], > 100 µM (inactive); in experiment [3] it was > 100 µM (inactive); in [4], > 100 µM (inactive); in [19] it was 53.6 µM (inactive); in experiment [5] it was > 100 µM (inactive). The GI50 in experiment [6], in [7], in [8], in [9], in experiment [10] and in experiment [13] was > 100 µM (inactive) each time. Moreover, the GI50 in experiment [14], in experiment [15], in experiment [16], in [17], in [20] and in experiment [18] was > 100 µM (inactive) throughout.

Take `Cc1cc(C)c(N[S+]([O-])c2cccc(C(F)(F)F)c2)c(C)c1` (stereo not given): the GI50 in experiment [1], in experiment [2], in experiment [3], in experiment [19], in [5] and in experiment [6] was > 100 µM (inactive) throughout. Besides, the GI50 in experiment [7], in experiment [9], in [10], in experiment [12], in experiment [13] and in experiment [14] was > 100 µM (inactive) throughout. For the same compound, the GI50 in experiment [15], in [16], in experiment [20] and in experiment [18] was > 100 µM (inactive) in each case.

For `N=c1c2c3n(c4c(=O)n(-c5ccccc5)c(=S)n(c(=O)n1-c1ccccc1)c24)CCCCC3`, the GI50 in [1] was > 100 µM (inactive); in experiment [2] it was > 100 µM (inactive); in experiment [3] it was > 100 µM (inactive); in experiment [4], > 91.4 µM (inactive); in experiment [19], > 100 µM (inactive); in [5] it was > 100 µM (inactive). The GI50 in [7], in experiment [8], in experiment [9], in experiment [10], in experiment [11] and in [12] was > 100 µM (inactive) in each case. For the same compound, the GI50 is > 100 µM (inactive) in experiment [13]; > 100 µM (inactive) in experiment [14]; > 100 µM (inactive) in experiment [15]; > 89.7 µM (inactive) in [16]; > 100 µM (inactive) in experiment [17]; 55.6 µM (inactive) in experiment [18].

In the case of `CS(=O)(=O)CCC(N)P(=O)(O)O` (stereo not given), the GI50 in experiment [1], in [2], in experiment [3], in experiment [4], in [19] and in experiment [5] was > 100 µM (inactive) in each case. The GI50 in [6], in experiment [7], in experiment [9], in experiment [10], in experiment [11] and in experiment [12] was > 100 µM (inactive) each time. Also, the GI50 in experiment [13], in experiment [14], in experiment [15], in experiment [17], in [20] and in experiment [18] was > 100 µM (inactive) each time.

Regarding `Cc1ccc(C2(c3ccc(Cl)cc3)c3ccccc3C3=NCCN32)cc1` (stereo not given), the GI50 in [1] was 13.1 µM (inactive); in experiment [2], 11.1 µM (inactive); in experiment [3], 4.6 µM (inactive); in [4], 14.1 µM (inactive); in experiment [19] it was 6.79 µM (inactive); in experiment [5] it was 1.89 µM (inactive). For the same compound, the GI50 in experiment [6] is 3.74 µM (inactive); in [7], 10.7 µM (inactive); in experiment [8] it was 5.7 µM (inactive); in experiment [9], 2.86 µM (inactive); in experiment [10], 3.37 µM (inactive); in [12] it was 10 µM (inactive). The GI50 in experiment [13] was 14.5 µM (inactive); in [14] it was 15.1 µM (inactive); in [15], 1.59 µM (inactive); in experiment [17] it was 12.2 µM (inactive); in [18], 15.7 µM (inactive).

Regarding `CN1CCN(C(=S)N(C(=O)c2cccs2)c2ccccc2)CC1`, the GI50 in experiment [1], in experiment [2], in [3], in [19], in experiment [5] and in [6] was > 100 µM (inactive) throughout. The GI50 in experiment [7], in experiment [8], in experiment [9], in [10], in experiment [11] and in experiment [13] was > 100 µM (inactive) each time. Moreover, the GI50 was > 100 µM (inactive) in experiment [14]; > 10 µM (inactive) in experiment [15]; > 100 µM (inactive) in experiment [17]; > 100 µM (inactive) in experiment [20]; > 100 µM (inactive) in [18].

Regarding `O=C1NN=C(c2c[nH]c3ccccc23)CC1NCc1ccccc1` (stereo not given), the GI50 in experiment [1], in experiment [2], in experiment [3], in experiment [19], in experiment [5] and in experiment [6] was > 100 µM (inactive) in each case. For the same compound, the GI50 in experiment [7], in experiment [8], in experiment [9], in experiment [10], in [11] and in experiment [12] was > 100 µM (inactive) in each case. Besides, the GI50 in [13], in experiment [14], in experiment [15], in experiment [16], in experiment [17] and in experiment [18] was > 100 µM (inactive) throughout.

Regarding `CC(C)(C)OC(=O)NCCC(N)=S`, the GI50 in experiment [1], in [2], in experiment [3], in [4], in experiment [19] and in experiment [5] was > 100 µM (inactive) each time. Further, the GI50 in experiment [6], in [7], in experiment [9], in experiment [10], in [12] and in [13] was > 100 µM (inactive) throughout. The GI50 in experiment [14], in experiment [15], in experiment [16], in experiment [20] and in experiment [18] was > 100 µM (inactive) throughout.

As to `COC(=O)[C@]1(c2cc3ccccc3[nH]2)CC2CN(CC(=O)N(C)OC)C1C1OC(C)(C)OC21` (stereo not given in full), the GI50 was 45.9 µM (inactive) in [1]; 33.3 µM (inactive) in experiment [2]; 31.7 µM (inactive) in experiment [3]; 63.5 µM (inactive) in [4]; 27.2 µM (inactive) in [19]; 61.9 µM (inactive) in experiment [5]. The GI50 in experiment [6] is 35.2 µM (inactive); in experiment [7], 29.6 µM (inactive); in experiment [8], 31.6 µM (inactive); in [9] it was 44.2 µM (inactive); in experiment [10], 49.5 µM (inactive); in experiment [11], > 100 µM (inactive). Besides, the GI50 in experiment [12] is 41.6 µM (inactive); in experiment [13], 75.3 µM (inactive); in experiment [14] it was > 100 µM (inactive); in [15] it was 36.1 µM (inactive); in experiment [16], > 100 µM (inactive); in experiment [17], 74.8 µM (inactive). Moreover, in experiment [18], the GI50 is 28.6 µM (inactive).
